Here are results for four molecules from patent US20040215021A1, “Stable lansoprazole containing more than 500 ppm, up to about 3,000 ppm water and more than 200 ppm, up to about 5,000 ppm alcohol” (priority 2002, published 2004).

Read-outs that look alike come from different tables or passages of the source.

A short description of data set [1]: Stability of stabilized vs. non-stabilized 'solvent-free' lansoprazole (HPLC impurities, color). The note with it: 3 months, 40° C., 75% humidity. The class given is physicochemical. From the text:
(§1) Chromatographic purity method of lansoprazole is detailed in the monograph in USP Forum Vol.26(5) [September-October 2000].

The conditions of data set [2]: cited from earlier work.
A short description of data set [3]: Stability of lansoprazole under different storage conditions (HPLC impurities). The class given is physicochemical.
Source text: The obtained lansoprazole is stable.
as §1

With `Cc1c(OCC(F)(F)F)ccnc1C[S+]([O-])c1nc2ccccc2[nH]1` (centres unmarked) [Lansoprazole Not Stabilized With Ammonia], in data set [1], the Color entry was “Brownish”, the LNP-SO2 turned out to be 0.04%, the LNPS is on record as 0.06% and the “Total Impurities” value is on record as 0.31%.

Take `Cc1c(OCC(F)(F)F)ccnc1C[S+]([O-])c1nc2ccccc2[nH]1` (centres unmarked) [Lansoprazole Stabilized With Ammonia]: in data set [1], the Color entry was “White”, the LNP-SO2 was determined as 0.02%, the LNPS is on record as 0.03% and the “Total Impurities” value is given as 0.08%.

For `Cc1c(OCC(F)(F)F)ccnc1C[S+]([O-])c1nc2ccccc2[nH]1` (centres unmarked) [Lansoprazole, 2-[[[3-methyl-4-(2,2,2-trifluoro-ethoxy)-2-pyridinyl]methyl]sulfinyl]-1H-benzimidazole], the Color on storage result is “pale brown” in data set [2] (4 months at 40° C. and 75% room humidity); “pale yellowish brown” in data set [2] (4 months at 40° C., absence of humidity). The LNP-SO2 is given as 0.04% in data set [3] (1 month, 2-8° C.); 0.04% in data set [3] (1 month, 25° C., 60% humidity); 0.04% in data set [3] (2 month, 2-8° C.); 0.04% in data set [3] (2 month, 25° C., 60% humidity); 0.04% in data set [3] (2 weeks, 25° C., 60% humidity); 0.04% in data set [3] (3 month, 2-8° C.). Besides, the LNP-SO2 in data set [3] (3 month, 25° C., 60% humidity) is listed as 0.04%; in data set [3] (6 month, 2-8° C.), 0.04%; in data set [3] (6 month, 25° C., 60% humidity) it was 0.04%; in data set [3] (9 month, 2-8° C.) it was 0.05%; in data set [3] (9 month, 25° C., 60% humidity), 0.05%; in data set [3] (12 month, 25° C., 60% humidity), 0.04%. This molecule yielded an LNP-SO2 in data set [3] (time 0) of 0.04%. Moreover, the LNPS in data set [3] (1 month, 2-8° C.) was 0.01%; in data set [3] (1 month, 25° C., 60% humidity), 0.01%; in data set [3] (2 month, 2-8° C.) it was 0.01%; in data set [3] (2 month, 25° C., 60% humidity), 0.01%; in data set [3] (2 weeks, 25° C., 60% humidity), “<detection limit”; in data set [3] (3 month, 2-8° C.) it was “<detection limit”. In addition, the LNPS result was “<detection limit” in data set [3] (3 month, 25° C., 60% humidity); “<detection limit” in data set [3] (6 month, 2-8° C.); “<detection limit” in data set [3] (6 month, 25° C., 60% humidity); “<detection limit” in data set [3] (9 month, 2-8° C.); 0.04% in data set [3] (9 month, 25° C., 60% humidity); “<detection limit” in data set [3] (12 month, 2-8° C.). The LNPS is on record as 0.07% in data set [3] (12 month, 25° C., 60% humidity) and “<detection limit” in data set [3] (time 0). Besides, the “Total Impurities” value is 0.05% in data set [3] (1 month, 2-8° C.); 0.09% in data set [3] (1 month, 25° C., 60% humidity); 0.05% in data set [3] (2 month, 2-8° C.); 0.08% in data set [3] (2 month, 25° C., 60% humidity); 0.04% in data set [3] (2 weeks, 25° C., 60% humidity); 0.04% in data set [3] (3 month, 2-8° C.). For the same molecule, the “Total Impurities” value worked out at 0.1% in data set [3] (3 month, 25° C., 60% humidity); 0.04% in data set [3] (6 month, 2-8° C.); 0.12% in data set [3] (6 month, 25° C., 60% humidity); 0.05% in data set [3] (9 month, 2-8° C.); 0.18% in data set [3] (9 month, 25° C., 60% humidity); 0.03% in data set [3] (12 month, 2-8° C.). In addition, the “Total Impurities” value worked out at 0.32% in data set [3] (12 month, 25° C., 60% humidity) and 0.04% in data set [3] (time 0). For the same molecule, in data set [3] (product of Example 2, water 2,200 ppm, alcohol <50 ppm), the “Stability (in words)” value is “stable”.

For the molecule `Cc1c(OCC(F)(F)F)ccnc1C[S+]([O-])c1nc2ccccc2[nH]1` (centres unmarked) [wet lansoprazole product], the “Stability (in words)” value in data set [3] (Example 4, wet product before drying, water about 2,200 ppm, ethanol about 300 to about 500 ppm expected) is given as “behave similarly to the dry lansoprazole”.
